According to patent US20110230476A1, “PI3 KINASE INHIBITORS AND USES THEREOF” (AVILA THERAPEUTICS, INC., priority 2009, published 2011):
pIC50: −log10 of the molar value.

What follows are molecules tested against T1, PI3Kα (p110α/p85α) (Homo sapiens, UniProt P42336) (assay: HTRF assay, potency against active PI3Kα). Conditions: HTRF; [ATP]=50 μM, [di-C8-PIP2]=10 μM; 30 min pre-incubation; read-out: PI3Kα Inhibition.
T1 construct: purchased BPS Bioscience (San Diego, Calif.) or Millipore (Billerica, Mass.)
T1 sequence (P42336 whole entry): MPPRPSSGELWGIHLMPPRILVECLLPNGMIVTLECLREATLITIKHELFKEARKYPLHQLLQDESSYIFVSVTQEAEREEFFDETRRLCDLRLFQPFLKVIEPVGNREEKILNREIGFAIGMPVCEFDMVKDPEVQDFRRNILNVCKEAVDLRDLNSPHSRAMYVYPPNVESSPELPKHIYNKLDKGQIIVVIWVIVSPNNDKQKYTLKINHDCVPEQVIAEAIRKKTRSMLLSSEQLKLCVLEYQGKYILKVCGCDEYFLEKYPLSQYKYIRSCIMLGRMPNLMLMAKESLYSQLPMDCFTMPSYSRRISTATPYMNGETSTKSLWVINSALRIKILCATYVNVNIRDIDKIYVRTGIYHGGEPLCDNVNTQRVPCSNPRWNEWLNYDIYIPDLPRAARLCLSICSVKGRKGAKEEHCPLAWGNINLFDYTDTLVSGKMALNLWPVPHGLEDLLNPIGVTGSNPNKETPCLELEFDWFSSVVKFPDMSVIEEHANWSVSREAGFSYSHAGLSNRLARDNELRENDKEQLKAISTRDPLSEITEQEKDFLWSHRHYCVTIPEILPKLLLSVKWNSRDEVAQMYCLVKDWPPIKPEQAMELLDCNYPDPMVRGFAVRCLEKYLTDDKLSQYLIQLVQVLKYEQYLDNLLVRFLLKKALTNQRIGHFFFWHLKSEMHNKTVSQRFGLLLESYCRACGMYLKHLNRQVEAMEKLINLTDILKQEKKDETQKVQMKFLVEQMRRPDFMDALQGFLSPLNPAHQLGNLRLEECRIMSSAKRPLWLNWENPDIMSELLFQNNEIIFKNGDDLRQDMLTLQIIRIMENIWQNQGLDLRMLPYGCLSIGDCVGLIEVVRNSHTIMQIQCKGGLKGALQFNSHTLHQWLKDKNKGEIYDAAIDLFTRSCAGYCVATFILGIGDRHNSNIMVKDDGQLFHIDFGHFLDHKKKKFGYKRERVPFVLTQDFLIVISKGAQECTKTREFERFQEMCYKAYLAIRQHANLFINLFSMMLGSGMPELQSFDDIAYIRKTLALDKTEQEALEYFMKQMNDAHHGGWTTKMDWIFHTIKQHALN
T1 sequence (P27986 whole entry partner): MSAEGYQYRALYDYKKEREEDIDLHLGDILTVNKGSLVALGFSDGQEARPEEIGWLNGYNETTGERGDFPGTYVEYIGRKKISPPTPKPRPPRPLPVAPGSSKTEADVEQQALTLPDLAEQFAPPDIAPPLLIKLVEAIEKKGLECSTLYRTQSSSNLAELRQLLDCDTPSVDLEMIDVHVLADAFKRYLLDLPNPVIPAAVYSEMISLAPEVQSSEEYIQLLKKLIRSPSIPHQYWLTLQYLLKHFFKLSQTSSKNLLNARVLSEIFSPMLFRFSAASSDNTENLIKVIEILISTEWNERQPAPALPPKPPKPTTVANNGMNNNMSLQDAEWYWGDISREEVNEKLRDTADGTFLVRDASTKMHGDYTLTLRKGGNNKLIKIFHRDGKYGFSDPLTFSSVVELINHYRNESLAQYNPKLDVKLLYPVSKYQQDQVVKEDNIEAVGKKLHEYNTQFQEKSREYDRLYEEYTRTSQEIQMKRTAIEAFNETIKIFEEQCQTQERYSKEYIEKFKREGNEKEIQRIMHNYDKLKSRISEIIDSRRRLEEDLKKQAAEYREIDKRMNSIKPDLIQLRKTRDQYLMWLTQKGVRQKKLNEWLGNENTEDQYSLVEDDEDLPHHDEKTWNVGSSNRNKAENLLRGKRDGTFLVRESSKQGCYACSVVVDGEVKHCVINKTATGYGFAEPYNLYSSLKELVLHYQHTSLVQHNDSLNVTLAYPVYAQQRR
Assay type: biochemical
Method in brief: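 IC50 came from a variable-slope fit of % inhibition, calculated from the HTRF emission ratio relative to wells with and without enzyme. Reactions with the active enzyme complex ran 30-60 minutes at 25 °C after ATP addition before stop and detection reagents.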
C=CC(=O)N(C)CC(=O)N1CCC(n2nc(-c3cc4cc(O)ccc4[nH]3)c3c(N)ncnc32)CC1 [XI-8, N-(2-(4-(4-amino-3-(5-hydroxy-1H-indol-2-yl)-1H-pyrazolo[3,4-d]pyrimidin-1-yl)piperidin-1-yl)-2-oxoethyl)-N-methylacrylamide] was tested, and the pIC50 was under 6.00.
Molecule CC(C)=CC(=O)CCC(=O)N1CCN(Cc2cc(-c3cnc(N)nc3)nc(N3CCOCC3)c2)CC1 [XII-1, 1-(4-((2-(2-aminopyrimidin-5-yl)-6-morpholinopyridin-4-yl)methyl)piperazin-1-yl)-6-methylhept-5-ene-1,4-dione] has a pIC50 of 6.00 to 7.00.
Molecule CC(C)=CC(=O)CCCC(=O)N1CC=C(c2cc(-c3cnc(N)nc3)nc(N3CCOCC3)c2)CC1 [XII-3, 1-(4-(2-(2-aminopyrimidin-5-yl)-6-morpholinopyridin-4-yl)-5,6-dihydropyridin-1(2H)-yl)-7-methyloct-6-ene-1,5-dione] has a pIC50 of 7.00 to 8.00.
In the case of CC(C)=CC(=O)CCCCC#Cc1cc(-c2cnc(N)nc2)nc(N2CCOCC2)c1 [XII-6, 10-(2-(2-aminopyrimidin-5-yl)-6-morpholinopyridin-4-yl)-2-methyldec-2-en-9-yn-4-one], the pIC50 was 6.00 to 7.00.
In the case of CC(C)=CC(=O)CCCCC#Cc1cc(-c2cccc3[nH]ncc23)nc(N2CCOCC2)c1 [XII-7, 10-(2-(1H-indazol-4-yl)-6-morpholinopyridin-4-yl)-2-methyldec-2-en-9-yn-4-one], the pIC50 was under 6.00.
For CC(C)=CC(=O)CCCCC#Cc1cc(-c2cnc(N)cc2C(F)(F)F)nc(N2CCOCC2)c1 [XII-8, 10-(6′-amino-6-morpholino-4′-(trifluoromethyl)-2,3′-bipyridin-4-yl)-2-methyldec-2-en-9-yn-4-one], the pIC50 was under 6.00.
Molecule CC(C)=CC(=O)c1ccc(CCNC(=O)c2cc(-c3cnc(N)cc3C(F)(F)F)nc(N3CCOCC3)c2)cc1 [XII-9, 6′-amino-N-(4-(3-methylbut-2-enoyl)phenethyl)-6-morpholino-4′-(trifluoromethyl)-2,3′-bipyridine-4-carboxamide] has a pIC50 of under 6.00.
Molecule CC(C)=CC(=O)c1ccc(CCNC(=O)c2cc(-c3cnc(N)nc3)nc(N3CCOCC3)c2)cc1 [XII-10, 2-(2-aminopyrimidin-5-yl)-N-(4-(3-methylbut-2-enoyl)phenethyl)-6-morpholinoisonicotinamide] has a pIC50 of 6.00 to 7.00.
Work on C=CC(=O)Nc1ccc(CCNC(=O)c2cc(-c3cnc(N)cc3C(F)(F)F)nc(N3CCOCC3)c2)cc1 [XII-11, N-(4-acrylamidophenethyl)-6′-amino-6-morpholino-4′-(trifluoromethyl)-2,3′-bipyridine-4-carboxamide] yielded a pIC50 of under 6.00.
Molecule CC(C)=CC(=O)c1ccc(CCNC(=O)c2cc(-c3cccc4[nH]ncc34)nc(N3CCOCC3)c2)cc1 [XII-12] has a pIC50 of under 6.00.
Molecule C=CC(=O)Nc1ccc(CCNC(=O)c2cc(-c3cccc4[nH]ncc34)nc(N3CCOCC3)c2)cc1 [XII-13, N-(4-acrylamidophenethyl)-2-(1H-indazol-4-yl)-6-morpholinoisonicotinamide] has a pIC50 of under 6.00.
C=CC(=O)Nc1ccc(CNC(=O)c2cc(-c3cccc4[nH]ncc34)nc(N3CCOCC3)c2)cc1 [XII-14, N-(4-acrylamidobenzyl)-2-(1H-indazol-4-yl)-6-morpholinoisonicotinamide] gave a pIC50 of under 6.00.
C=CC(=O)Nc1ccc(CCNC(=O)c2cc(-c3cnc(N)nc3C)nc(N3CCOCC3)c2)cc1 [XII-16, N-(4-acrylamidophenethyl)-2-(2-amino-4-methylpyrimidin-5-yl)-6-morpholinoisonicotinamide] was tested, and the pIC50 was 6.00 to 7.00.
For C=CC(=O)Nc1ccc(CNC(=O)c2cc(-c3cnc(N)nc3C)nc(N3CCOCC3)c2)cc1 [XII-17, N-(4-acrylamidobenzyl)-2-(2-amino-4-methylpyrimidin-5-yl)-6-morpholinoisonicotinamide], the pIC50 was under 6.00.
CC(C)=CC(=O)CCc1ccc(C#Cc2cc(-c3cccc4[nH]ncc34)nc(N3CCOCC3)c2)cc1 [XII-19, 1-(4-((2-(1H-indazol-4-yl)-6-morpholinopyridin-4-yl)ethynyl)phenyl)-5-methylhex-4-en-3-one] gave a pIC50 of under 6.00.
In the case of CC(C)=CC(=O)CCCC(=O)NCC#Cc1cc(-c2cnc(N)nc2)nc(N2CCOCC2)c1 [XII-20, N-(3-(2-(2-aminopyrimidin-5-yl)-6-morpholinopyridin-4-yl)prop-2-ynyl)-7-methyl-5-oxooct-6-enamide], the pIC50 was 6.00 to 7.00.
CC(C)=CC(=O)CCc1ccc(C#Cc2cc(-c3cnc(N)nc3)nc(N3CCOCC3)c2)cc1 [XII-21, 1-(4-((2-(2-aminopyrimidin-5-yl)-6-morpholinopyridin-4-yl)ethynyl)phenyl)-5-methylhex-4-en-3-one] gave a pIC50 of under 6.00.
For CC(C)=CC(=O)C(=O)Nc1ccc(C#Cc2cc(-c3cnc(N)nc3)nc(N3CCOCC3)c2)cc1 [XII-22, N-(4-((2-(2-aminopyrimidin-5-yl)-6-morpholinopyridin-4-yl)ethynyl)phenyl)-4-methyl-2-oxopent-3-enamide], the pIC50 was over 8.00.
With CC(C)=CC(=O)CCCC(=O)N1CCN(Cc2cc(-c3cnc(N)nc3)nc(N3CCOCC3)c2)CC1 [XII-23, 1-(4-((2-(2-aminopyrimidin-5-yl)-6-morpholinopyridin-4-yl)methyl)piperazin-1-yl)-7-methyloct-6-ene-1,5-dione] the pIC50 was 6.00 to 7.00.
CC(C)=CC(=O)C(=O)N1CCN(c2ccc(-c3cc(-c4cnc(N)nc4)nc(N4CCOCC4)c3)cc2)CC1 [XII-24, 1-(4-(4-(2-(2-aminopyrimidin-5-yl)-6-morpholinopyridin-4-yl)phenyl)piperazin-1-yl)-4-methylpent-3-ene-1,2-dione] showed a pIC50 of 7.00 to 8.00.
For CC(C)=CC(=O)C(=O)N1CCN(c2ccc(-c3cc(-c4cnc(N)nc4)nc(N4CCOCC4)c3)cn2)CC1 [XII-25, 1-(4-(2′-(2-aminopyrimidin-5-yl)-6′-morpholino-3,4′-bipyridin-6-yl)piperazin-1-yl)-4-methylpent-3-ene-1,2-dione], the pIC50 was 7.00 to 8.00.
In the case of CC(C)=CC(=O)C(=O)N1CCN(c2cc(C)c(-c3cc(-c4cnc(N)nc4)nc(N4CCOCC4)c3)cn2)CC1 [XII-26, 1-(4-(2′-(2-aminopyrimidin-5-yl)-4-methyl-6′-morpholino-3,4′-bipyridin-6-yl)piperazin-1-yl)-4-methylpent-3-ene-1,2-dione], the pIC50 was 7.00 to 8.00.
CC(C)=CC(=O)CN1CCN(c2ccc(-c3cc(-c4cnc(N)nc4)nc(N4CCOCC4)c3)cn2)CC1 [XII-27, 1-(4-(2′-(2-aminopyrimidin-5-yl)-6′-morpholino-3,4′-bipyridin-6-yl)piperazin-1-yl)-4-methylpent-3-en-2-one] showed a pIC50 of 7.00 to 8.00.
C=CC(=O)N1CCN(c2ccc(-c3cc(-c4cnc(N)nc4)nc(N4CCOCC4)c3)cn2)CC1 [XII-28, 1-(4-(2′-(2-aminopyrimidin-5-yl)-6′-morpholino-3,4′-bipyridin-6-yl)piperazin-1-yl)prop-2-en-1-one] gave a pIC50 of 6.00 to 7.00.
CC(C)CC(=O)C(=O)N1CCN(c2ccc(-c3cc(-c4cnc(N)nc4)nc(N4CCOCC4)c3)cn2)CC1 [XII-29, 1-(4-(2′-(2-aminopyrimidin-5-yl)-6′-morpholino-3,4′-bipyridin-6-yl)piperazin-1-yl)-4-methylpentane-1,2-dione] gave a pIC50 of 6.00 to 7.00.
Work on CC(C)=CC(=O)CCCC(=O)N1CCN(c2cc(-c3cnc(N)nc3)nc(N3CCOCC3)c2)CC1 [XII-30, 1-(4-(2-(2-aminopyrimidin-5-yl)-6-morpholinopyridin-4-yl)piperazin-1-yl)-7-methyloct-6-ene-1,5-dione] yielded a pIC50 of 6.00 to 7.00.
CC(C)=CC(=O)CCC(=O)N1CCC(C#Cc2cc(-c3cnc(N)nc3)nc(N3CCOCC3)c2)CC1 [XII-31, 1-(4-((2-(2-aminopyrimidin-5-yl)-6-morpholinopyridin-4-yl)ethynyl)piperidin-1-yl)-6-methylhept-5-ene-1,4-dione] showed a pIC50 of 6.00 to 7.00.
With CC(C)=CC(=O)C(=O)N1CCC(C#Cc2cc(-c3cnc(N)nc3)nc(N3CCOCC3)c2)CC1 [XII-32, 1-(4-((2-(2-aminopyrimidin-5-yl)-6-morpholinopyridin-4-yl)ethynyl)piperidin-1-yl)-4-methylpent-3-ene-1,2-dione] the pIC50 was 6.00 to 7.00.
Molecule CC(C)=CC(=O)C1(C(=O)N2CCC(C#Cc3cc(-c4cnc(N)nc4)nc(N4CCOCC4)c3)CC2)CC1 [XII-33, 1-(1-(4-((2-(2-aminopyrimidin-5-yl)-6-morpholinopyridin-4-yl)ethynyl)piperidine-1-carbonyl)cyclopropyl)-3-methylbut-2-en-1-one] has a pIC50 of 6.00 to 7.00.
With CC(C)=CC(=O)CN1CCN(C2CCN(c3cc(-c4cnc(N)nc4)nc(N4CCOCC4)c3)CC2)CC1 [XII-34, 1-(4-(1-(2-(2-aminopyrimidin-5-yl)-6-morpholinopyridin-4-yl)piperidin-4-yl)piperazin-1-yl)-4-methylpent-3-en-2-one] the pIC50 was 6.00 to 7.00.
CC(C)=CC(=O)C(=O)N1CCN(C2CCN(c3cc(-c4cnc(N)nc4)nc(N4CCOCC4)c3)CC2)CC1 [XII-35, 1-(4-(1-(2-(2-aminopyrimidin-5-yl)-6-morpholinopyridin-4-yl)piperidin-4-yl)piperazin-1-yl)-4-methylpent-3-ene-1,2-dione] showed a pIC50 of 6.00 to 7.00.
CC(C)=CC(=O)C1(C(=O)N2CCC3(CC2)CCN(c2cc(-c4cnc(N)nc4)nc(N4CCOCC4)c2)CC3)CC1 [XII-36, 1-(1-(9-(2-(2-aminopyrimidin-5-yl)-6-morpholinopyridin-4-yl)-3,9-diazaspiro[5.5]undecane-3-carbonyl)cyclopropyl)-3-methylbut-2-en-1-one] was tested, and the pIC50 was 6.00 to 7.00.
For CC(C)=CC(=O)C1(C(=O)N2CC=C(C#Cc3cc(-c4cnc(N)nc4)nc(N4CCOCC4)c3)CC2)CC1 [XII-37, 1-(1-(4-((2-(2-aminopyrimidin-5-yl)-6-morpholinopyridin-4-yl)ethynyl)-1,2,3,6-tetrahydropyridine-1-carbonyl)cyclopropyl)-3-methylbut-2-en-1-one], the pIC50 was 7.00 to 8.00.
Molecule CC(C)=CC(=O)C1(C(=O)N2CCC3(CC2)CN(c2cc(-c4cnc(N)nc4)nc(N4CCOCC4)c2)C3)CC1 [XII-38, 1-(1-(2-(2-(2-aminopyrimidin-5-yl)-6-morpholinopyridin-4-yl)-2,7-diazaspiro[3.5]nonane-7-carbonyl)cyclopropyl)-3-methylbut-2-en-1-one] has a pIC50 of 6.00 to 7.00.
